Experimental data reported in patent US20250049798A1, “WEE1 PROTEIN KINASE DEGRADATION AGENT AND USE THEREOF” (HANGZHOU GLUBIO PHARMACEUTICAL CO. LTD., priority 2021, published 2025).
Read-outs that look alike come from different tables or passages of the source.

How the values were obtained:
NCI-H1048 cells = assay: NCI-H1048 cell proliferation assay (CTG assay); format: cell-based; details: Homo sapiens, 120 hours, read-out: CTG cellular assay_H1048: IC50
Procedure: NCI-H1048 Cell Proliferation Assay (CTG Assay) The following is an example of an assay that can be used to determine the anti-proliferative activity of Wee1 PROTACs in a small cell lung cancer cell line, NCI-H1048 (ATCC Cat #CRL-5853). This cell line was cultured in RPMI-1640 medium supplemented with 10% FBS. About 1,200 NCI-H1048 cells in 50 μL of culture medium were seeded into a 384-well plate (Cat #3764, Corning), pre-spotted with compounds using the Echo 650 liquid handler (Beckman). The dose-response-curve (DRC) typically has 10-points with a highest concentration at 10 μM, and half-log diluted to as low as 0.316 nM, plus a DMSO control. Assay plates were incubated at 37° C. with 5% CO2 for 120 hours. After that, 20 μL of the CellTiter-Glo (CTG) Luminescent Cell Viability Assay Reagent (Cat #G7573, Promega) was added to each well and incubated at room temperature for 30 minutes. Luminescence was then measured with Pherastar microplate reader (BMG Labtech). All percentage of cell growth inhibition curves were processed using Collaborative Drug Discovery Vault.
Cell viability reads in compound-treated wells were normalized to that of DMSO control and expressed as Percent of Control (PoC, y). A four Parameter Logistic Model was used to determine the compound's EC50 and DC50, using the following equation: […]

HiBiT tagged Wee1 = HiBiT tagged Wee1 (Homo sapiens, UniProt P30291); assay: Wee1 protein degradation assay (HiBiT assay); format: cell-based; details: for Dmax: maximum percentage of Wee1 degradation, read-out: HiBiT Wee1: Dmax
Chain of HiBiT tagged Wee1 (P30291 whole entry): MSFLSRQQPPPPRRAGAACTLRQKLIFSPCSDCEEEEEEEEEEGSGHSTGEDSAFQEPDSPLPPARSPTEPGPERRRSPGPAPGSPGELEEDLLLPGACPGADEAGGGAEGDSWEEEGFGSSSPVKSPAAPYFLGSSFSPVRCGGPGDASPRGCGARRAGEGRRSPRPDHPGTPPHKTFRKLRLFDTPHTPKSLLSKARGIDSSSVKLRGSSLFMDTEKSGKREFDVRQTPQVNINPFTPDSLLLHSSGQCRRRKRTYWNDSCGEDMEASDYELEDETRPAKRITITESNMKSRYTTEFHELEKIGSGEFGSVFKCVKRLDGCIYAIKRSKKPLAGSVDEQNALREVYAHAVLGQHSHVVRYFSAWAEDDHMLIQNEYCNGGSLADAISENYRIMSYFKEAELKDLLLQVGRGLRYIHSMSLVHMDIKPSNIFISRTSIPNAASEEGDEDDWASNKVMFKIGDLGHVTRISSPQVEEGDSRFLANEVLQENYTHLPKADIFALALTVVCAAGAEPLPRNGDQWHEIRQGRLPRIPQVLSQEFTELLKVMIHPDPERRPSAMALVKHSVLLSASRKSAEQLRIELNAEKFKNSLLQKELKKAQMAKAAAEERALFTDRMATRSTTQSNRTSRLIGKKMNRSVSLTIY

[1] = engineered HT-1080 cells, 20 hours

Structure (SMILES)	IC50 (NCI-H1048 cells) [nM]	DC50 (HiBiT tagged Wee1; [1]) [nM]	Dmax (HiBiT tagged Wee1; [1]) [%]	Dmax (HiBiT tagged Wee1; HT-1080, […]) [%]
C=CCn1c(=O)c2cnc(Nc3ccc(N4CCN(CC5CCN(c6ccc7c(c6)C(=O)N(C6CCC(=O)NC6=O)C7=O)CC5)CC4)cc3)nc2n1-c1cccc(C(C)(C)O)n1 (stereo not shown) [Compound 8]	25 to 100	< 100	50 to 75	
C=CCn1c(=O)c2cnc(Nc3ccc(N4CCN(CC5CCN(c6ccc7c(N8CCC(=O)NC8=O)nn(C)c7c6)CC5)CC4)c(C)c3)nc2n1-c1ccc2c(n1)[C@](C)(O)CC2 [Compound 137]	≤ 25	< 100	> 75	
C=CCn1c(=O)c2cnc(Nc3ccc(N4CCN(CC5CCN(c6ccc(NC7CCC(=O)NC7=O)cc6F)CC5)CC4)cc3)nc2n1-c1ccc2c(n1)[C@](C)(O)CC2 (single isomer, unassigned) [Compound 152-A]	≤ 25	< 100		
C=CCn1c(=O)c2cnc(Nc3ccc(N4CC5(CC(N6CCN(c7ccc(NC8CCC(=O)NC8=O)cc7F)CC6)C5)C4)cc3)nc2n1-c1ccc2c(n1)[C@@](O)(CC)CC2 (stereo partly shown) [Compound 173]	≤ 25	< 100	> 75	
C=CCn1c(=O)c2cnc(Nc3ccc(N4CCN(C5CCN(c6ccc(NC7CCC(=O)NC7=O)cc6F)CC5)CC4)cc3)nc2n1-c1ccc2c(n1)[C@@](O)(CC)CC2 (stereo partly shown) [Compound 157]	≤ 25	< 100		
C=CCn1c(=O)c2cnc(Nc3ccc(N4CCN(CC5CCN(c6ccc(NC7CCC(=O)NC7=O)cc6F)CC5)CC4)cc3)nc2n1-c1ccc2c(n1)[C@@](O)(CC)CC2 (single isomer, unassigned) [Compound 150-A]	≤ 25	< 100	> 75	
C=CCn1c(=O)c2cnc(Nc3ccc(N4CCC(CN5CCC(c6ccc(NC7CCC(=O)NC7=O)cc6C(F)(F)F)CC5)CC4)cc3)nc2n1-c1cccc(C(C)(C)O)n1 (stereo not shown) [Compound 80]	≤ 25	< 100	> 75	
Cc1cc(Nc2ncc3c(n2)N(C)CN(c2c(Cl)cccc2Cl)C3=O)ccc1C1CCN(CC2CCN(c3ccc4c(c3)C(=O)N(C3CCC(=O)NC3=O)C4=O)CC2)CC1 (stereo not shown) [Compound 16]	> 100	> 1000	< 50	
C=CCn1c(=O)c2cnc(Nc3ccc(N4CCN(CCCc5ccc6c(c5)n(C)c(=O)n6C5CCC(=O)NC5=O)CC4)cc3)nc2n1-c1cccc(C(C)(C)O)n1 (stereo not shown) [Compound 46]	25 to 100	< 100	50 to 75	
C=CCn1c(=O)c2cnc(Nc3ccc(C4CCN(CC5CN(c6ccc7c(c6)C(=O)N(C6CCC(=O)NC6=O)C7=O)C5)CC4)cc3)nc2n1-c1cccc(C(C)(C)O)n1 (stereo not shown) [Compound 9]	25 to 100	< 100	50 to 75	
C=CCn1c(=O)c2cnc(Nc3ccc(N4CCN(CCCCc5cccc6c5n(C)c(=O)n6C5CCC(=O)NC5=O)CC4)cc3)nc2n1-c1cccc(C(C)(C)O)n1 (stereo not shown) [Compound 51]	≤ 25	< 100	50 to 75	
O=C1CCC(N2C(=O)c3ccc(N4CCC(CN5CCN(c6ccc(Nc7ncc8c(=O)n(-c9c(Cl)cccc9Cl)c9nccn9c8n7)cc6)CC5)CC4)cc3C2=O)C(=O)N1 (stereo not shown) [Compound 3]	25 to 100	< 100	50 to 75	
C=CCn1c(=O)c2cnc(Nc3ccc(N4CCN(CC5CCN(c6ncc(NC7CCC(=O)NC7=O)cc6Cl)CC5)CC4)cc3)nc2n1-c1ccc2c(n1)[C@@](O)(CC)CC2 (stereo partly shown) [Compound 181]	≤ 25	< 100	> 75	
C=CCn1c(=O)c2cnc(Nc3ccc(C4CCN(CC5CCN(c6cccc7c6n(C)c(=O)n7C6CCC(=O)NC6=O)CC5)CC4)cc3)nc2n1-c1ccc2c(n1)[C@@](O)(CC)CC2 (stereo partly shown) [Compound 108]	≤ 25	< 100	50 to 75	
C=CCn1c(=O)c2cnc(Nc3ccc(C4CCN(CC5CCN(c6cccc7c6n(C)c(=O)n7C6CCC(=O)NC6=O)CC5)CC4)c(C)c3)nc2n1-c1cccc(C(C)(C)O)n1 (stereo not shown) [Compound 97]	≤ 25		50 to 75	
C=CCn1c(=O)c2cnc(Nc3ccc(N4CCC(N5CC6(CN(c7ccc(NC8CCC(=O)NC8=O)cc7F)C6)C5)CC4)cc3)nc2n1-c1cccc(C(C)(C)O)n1 (stereo not shown) [Compound 123]	≤ 25	< 100	> 75	
C=CCn1c(=O)c2cnc(Nc3ccc(N4C[C@@H](C)N(CC5CCN(c6ccc(NC7CCC(=O)NC7=O)cc6F)CC5)[C@@H](C)C4)cc3)nc2n1-c1ccc2c(n1)[C@@](O)(CC)CC2 (stereo partly shown) [Compound 169]	≤ 25	< 100	> 75	

Structure (SMILES)	IC50 (NCI-H1048 cells) [nM]	DC50 (HiBiT tagged Wee1; [1]) [nM]	Dmax (HiBiT tagged Wee1; [1]) [%]	Dmax (HiBiT tagged Wee1; HT-1080, […]) [%]
C=CCn1c(=O)c2cnc(Nc3ccc4c(c3)CN(CC3CN(c5ccc6c(c5)C(=O)N(C5CCC(=O)NC5=O)C6=O)C3)CC4)nc2n1-c1cccc(C(C)(C)O)n1 (stereo not shown) [Compound 6]	> 100	> 1000	< 50	
CN1CN(c2c(Cl)cccc2Cl)C(=O)c2cnc(Nc3ccc(N4CCN(CCCNc5cccc6c5C(=O)N(C5CCC(=O)NC5=O)C6=O)CC4)cc3)nc21 (stereo not shown) [Compound 17]	> 100	> 1000		< 50
C=CCn1c(=O)c2cnc(Nc3ccc(N4CCN(CC5CCN(c6ncc(NC7CCC(=O)NC7=O)cc6F)CC5)[C@H](C)C4)cc3)nc2n1-c1ccc2c(n1)[C@@](O)(CC)CC2 (stereo partly shown) [Compound 193]	≤ 25	< 100	> 75	
C[C@]1(O)CC/C=C\Cn2c(=O)c3cnc(Nc4ccc(N5CCN(CC6CCN(c7ccc(NC8CCC(=O)NC8=O)cc7F)CC6)CC5)cc4)nc3n2-c2cccc1n2 (single isomer, unassigned) [Compound 141]	≤ 25	< 100	> 75	
C=CCn1c(=O)c2cnc(Nc3ccc(N4CCC(CN5CCC(c6ccc(NC7CCC(=O)NC7=O)cc6F)CC5)CC4)cc3)nc2n1-c1cccc(C(C)(C)O)n1 (stereo not shown) [Compound 81]	≤ 25	< 100	> 75	
C=CCn1c(=O)c2cnc(Nc3ccc(N4CCN(CC5CCN(c6cc7c(cc6F)c(N6CCC(=O)NC6=O)nn7C)CC5)CC4)cc3)nc2n1-c1ccc2c(n1)[C@@](O)(CC)CC2 [Compound 161]	≤ 25	< 100	> 75	
C=CCn1c(=O)c2cnc(Nc3ccc(N4CCN(CCCCc5ccc6c(c5)n(C)c(=O)n6C5CCC(=O)NC5=O)CC4)cc3)nc2n1-c1cccc(C(C)(C)O)n1 (stereo not shown) [Compound 47]	≤ 25	100 to 1000	50 to 75	
C=CCn1c(=O)c2cnc(Nc3ccc(N4CCN(CC5CCN(c6ccc7c(N8CCC(=O)NC8=O)nn(C)c7c6)CC5)CC4)cc3)nc2n1-c1ccc2c(n1)[C@@](O)(CC)CC2 [Compound 114]	≤ 25	< 100	> 75	
C=CCn1c(=O)c2cnc(Nc3ccc(N4CCN(CC5CCN(c6cccc7c(C8CCC(=O)NC8=O)nn(C)c67)CC5)CC4)cc3)nc2n1-c1cccc(C(C)(C)O)n1 (stereo not shown) [Compound 117]	≤ 25	< 100	> 75	
C=CCn1c(=O)c2cnc(Nc3ccc(N4CCN(CC5CCN(c6cc7c(cc6F)c(N6CCC(=O)NC6=O)nn7C)CC5)CC4)cc3)nc2n1-c1ccc2c(n1)[C@](C)(O)CC2 [Compound 196]	≤ 25	< 100	> 75	
C=CCn1c(=O)c2cnc(Nc3ccc(C4CCN(CC5CCN(c6ccc(NC7CCC(=O)NC7=O)cc6)CC5)CC4)cc3)nc2n1-c1cccc(C(C)(C)O)n1 (stereo not shown) [Compound 85]	≤ 25	< 100	50 to 75	
C=CCn1c(=O)c2cnc(Nc3ccc(N4CCC(CN5CCN(c6ccc(NC7CCC(=O)NC7=O)cc6F)CC5)CC4)cc3)nc2n1-c1ccc2c(n1)[C@@](O)(CC)CC2 (stereo partly shown) [Compound 119]	≤ 25	< 100	> 75	
C=CCn1c(=O)c2cnc(Nc3ccc(N4CCN(CC5CCN(c6ccc7c(N8CCC(=O)NC8=O)nn(C)c7c6)CC5)[C@H](C)C4)cc3)nc2n1-c1ccc2c(n1)[C@@](O)(CC)CC2 [Compound 174]	≤ 25	< 100	50 to 75	
C=CCn1c(=O)c2cnc(Nc3ccc(N4CCN(CC5CCN(c6cc7c(cc6F)c(N6CCC(=O)NC6=O)nn7C)CC5)CC4)nc3)nc2n1-c1ccc2c(n1)[C@@](O)(CC)CC2 [Compound 194]	≤ 25	< 100	> 75	
C=CCn1c(=O)c2cnc(Nc3ccc(N4CCN(CC5(F)CCN(c6ccc(NC7CCC(=O)NC7=O)cc6F)CC5)CC4)cc3)nc2n1-c1ccc2c(n1)[C@@](O)(CC)CC2 (stereo partly shown) [Compound 166]	25 to 100	< 100	> 75	
C=CCn1c(=O)c2cnc(Nc3ccc(C4CCN(C5CN(c6ccc7c(c6)C(=O)N(C6CCC(=O)NC6=O)C7=O)C5)CC4)cc3)nc2n1-c1cccc(C(C)(C)O)n1 (stereo not shown) [Compound 43]		< 100	> 75	
C=CCn1c(=O)c2cnc(Nc3ccc(N4CCC(CN5CCN(c6cccc7c(N8CCC(=O)NC8=O)nn(C)c67)CC5)CC4)cc3)nc2n1-c1cccc(C(C)(C)O)n1 [Compound 118]		100 to 1000	50 to 75	
